Reference: patent publication US20040200144A1, “Plant growth regulator and a method of producing the regulator” (Dainichiseika Color & Chemicals Mfg. Co., Ltd., priority 2003, published 2004)

Experiments:
Format in all cases: in vivo
Poinsettia young plants = assay: Dwarfing test of poinsettia young plant; settings: for Plant Height / Dwarfing Rate: 100 ml per pot to nursery soil on 49th and 78th days, measured 93rd day; for Dwarfing Rate: vs comparative group
Procedure: 18.4 g of potassium hydroxide was dissolved in 400 ml of distilled water at 20° C., 50 g of cinnamic acid was added to the potassium hydroxide solution and dissolved by stirring, the resultant solution was diluted with distilled water until the total volume of solution was 500 ml, and thus a cinnamic acid aqueous solution (pH 8.8) was prepared in a concentration of 10%. The aqueous solution was further diluted with distilled water 33.3 times or 20 times, and thus a cinnamic acid aqueous solution in a concentration of 0.3% or 0.5% was prepared, respectively.
Poinsettia young plants with heights of about 10 cm were planted and fixed in pots (diameter of 14.5 cm and depth of 14.5 cm), and cultivated continuously. On the 49th and 78th days, 100 ml of 0.3% or 0.5% cinnamic acid aqueous solution prepared as described above was added to the nursery soil of each of 30 pots, and thus 0.3% cinnamic acid aqueous solution addition group and 0.5% cinnamic acid aqueous solution addition group were obtained. Further, 30 pots were prepared as a comparative group on which general watering was performed. The cultivation of young plants of each group was continued. On the 93rd day, the length from a surface of the soil of each cultivation pot to a head portion of the poinsettia young plant was measured, the dwarfing rate (%) was calculated using the following equation, and thus the dwarfing effect of cinnamic acid aqueous solution was examined (the same way was applied to following examples).
Dwarfing rate (%)=[(the plant height of the comparative group)−(the plant height of an addition group)/the plant height of the comparative group]×100
In addition, “plant height” in all the tables below was an average of heights from a surface of the soil of a pot used in each test to a head portion of the plant.

[1] = test system: qing-geng-cai young plants; assay: Dwarfing test of qing-geng-cai young plant; settings: for Plant Height / Dwarfing Rate: 5 ml per cell on 5th day, measured 20th day; for Dwarfing Rate: vs comparative group
Procedure: (§1) 50 g of sodium tripolyphosphate was dissolved in 400 ml of distilled water at 80° C., 17.5 g of cinnamic acid was added to the sodium tripolyphosphate solution and dissolved by stirring, the resultant solution was diluted with distilled water until the total volume of solution was 500 ml, and thus 3.5% cinnamic acid aqueous solution (pH 6.5) was prepared. The aqueous solution was further diluted with distilled water 70 times or 17.5 times, and 0.05% cinnamic acid aqueous solution and 0.2% cinnamic acid aqueous solution were prepared, respectively.
(§2) Nursery soil for house use was filled into paper joint pots (each with 24 cells: 34×43×50 mm/cell), water was sufficiently given to the soil, and seeds of carrots were sowed. After seeding, the pot was placed in the same greenhouse as described above to sprout. Subsequently, on the 5th day, the cinnamic aqueous acid solutions were added to the nursery soil in the joint pots. One of the joint pots (24 cells) was prepared as a 0.05% cinnamic acid aqueous solution addition group, and 5 ml of the 0.05% cinnamic acid aqueous solution was added to the nursery soil of each cell. Another one of the join pots was prepared as a 0.2% cinnamic acid aqueous solution addition group, and 5 ml of the 0.2% cinnamic acid aqueous solution was added to the nursery soil of each cell. The other one of the joint pots was prepared as a comparative group in which 5 ml of water is added to each cell, instead of the cinnamic acid aqueous solution. Subsequently, the cultivation of carrot young plants in each group was continued under general conditions. On the 27th day, the heights of young plants in each group were measured, the dwarfing rate (%) was calculated, and the dwarfing effect of cinnamic acid aqueous solution on carrot young plants was examined. […].
In the same way as in Example 5 except that seeds of […] were sowed, and that plant heights were measured on the 20th day, the dwarfing effect of cinnamic acid aqueous solution on qing-geng-cai young plants was examined. […]

field peas young plants = assay: Dwarfing test of field peas young plant; settings: for Plant Height / Dwarfing Rate: measured 24th day; for Dwarfing Rate: vs comparative group
Procedure: 18.4 g of potassium hydroxide was dissolved in 400 ml of distilled water at 20° C., 50 g of cinnamic acid was added to the potassium hydroxide solution and dissolved by stirring, the resultant solution was diluted with distilled water until the total volume of solution was 500 ml, and thus 10% cinnamic acid aqueous solution (pH 8.8) was prepared. The aqueous solution was further diluted with distilled water 100 times or 33.3 times, and 0.1% cinnamic acid aqueous solution and 0.3% cinnamic acid aqueous solution were prepared, respectively.
as §2
In the same way as in Example 5 except that seeds of field peas were sowed, 0.1% and 0.3% cinnamic acid solutions in example 3 were added to the nursery soil in the joint pot, and that heights of young plants in each group were measured on the 24th day, the dwarfing effect of cinnamic acid aqueous solution on field peas young plants was examined. […]

broccoli young plants = assay: Dwarfing test of broccoli young plant; settings: for Plant Height / Dwarfing Rate: 5 ml per cell on 4th day, measured 20th day; for Dwarfing Rate: vs comparative group
Procedure: as §1, §2
In the same way as in Example 12 except that seeds of broccoli were sowed, the dwarfing effect of cinnamic acid aqueous solution on broccoli young plants was examined. […]

burdock young plants = assay: Dwarfing test of burdock young plant; settings: for Plant Height / Dwarfing Rate: 5 ml per cell on 4th day, measured 20th day; for Dwarfing Rate: vs comparative group
Procedure: as §1, §2
In the same way as in Example 12 except that seeds of burdock were sowed, the dwarfing effect of cinnamic acid aqueous solution on burdock young plants was examined. […]

[2] = test system: Cucumis melo var. makuwa young plants; assay: Dwarfing test of Cucumis melo var. makuwa young plant; settings: for Plant Height / Dwarfing Rate: 5 ml per cell on 7th day, measured 27th day; for Dwarfing Rate: vs comparative group
Procedure: as §1, §2
In the same way as in Example 12 except that seeds of tomato were sowed, and that the cinnamic acid solutions were added to the nursery soil of the joint pot on the 7th day, the dwarfing effect of cinnamic acid aqueous solution on tomato young plants was examined. […].
In the same way as in Example 17 except that seeds of watermelon were sowed, and that plant heights were measured on the 27th day, the dwarfing effect of cinnamic acid aqueous solution on watermelon young plants was examined. […].
In the same way as in Example 21 except that seeds of Cucumis melo var. makuwa were sowed, the dwarfing effect of cinnamic acid aqueous solution on Cucumis melo var. makuwa young plants was examined. […]

[3] = 0.1% aqueous solution of Example 3, 5 ml per cell on 5th day
[4] = 0.3% aqueous solution of Example 3, 5 ml per cell on 5th day

SMILES: O=C(O)C=Cc1ccccc1 [cinnamic acid]
- Plant Height (Poinsettia young plants; 0.3% aqueous solution): 19.2 cm
- Dwarfing Rate (Poinsettia young plants; 0.3% aqueous solution): 17.6%
- Plant Height (Poinsettia young plants; 0.5% aqueous solution): 18.1 cm
- Dwarfing Rate (Poinsettia young plants; 0.5% aqueous solution): 22.3%
- dwarfing effect (Poinsettia young plants; poinsettia young plants, 0.3% and 0.5% aqueous solutions): effective
- Plant Height ([1]; 0.05% aqueous solution): 6.3 cm
- Dwarfing Rate ([1]; 0.05% aqueous solution): 7.4%
- Plant Height ([1]; 0.2% aqueous solution): 4.3 cm
- Dwarfing Rate ([1]; 0.2% aqueous solution): 36.8%
- dwarfing effect ([1]; qing-geng-cai young plants, 0.05% and 0.2% aqueous solutions): effective
- Plant Height (field peas young plants; [3]): 24.3 cm
- Dwarfing Rate (field peas young plants; [3]): 19.5%
- Plant Height (field peas young plants; [4]): 18.1 cm
- Dwarfing Rate (field peas young plants; [4]): 40.1%
- dwarfing effect (field peas young plants; field peas young plants, 0.1% and 0.3% aqueous solutions): effective
- Plant Height (broccoli young plants; 0.05% aqueous solution): 8.8 cm
- Dwarfing Rate (broccoli young plants; 0.05% aqueous solution): 6.4%
- Plant Height (broccoli young plants; 0.2% aqueous solution): 6.4 cm
- Dwarfing Rate (broccoli young plants; 0.2% aqueous solution): 31.9%
- dwarfing effect (broccoli young plants; broccoli young plants, 0.05% and 0.2% aqueous solutions): effective
- Plant Height (burdock young plants; 0.05% aqueous solution): 4.9 cm
- Dwarfing Rate (burdock young plants; 0.05% aqueous solution): 21.0%
- Plant Height (burdock young plants; 0.2% aqueous solution): 4.3 cm
- Dwarfing Rate (burdock young plants; 0.2% aqueous solution): 30.6%
- dwarfing effect (burdock young plants; burdock young plants, 0.05% and 0.2% aqueous solutions): effective
- Plant Height ([2]; 0.05% aqueous solution): 6.1 cm
- Dwarfing Rate ([2]; 0.05% aqueous solution): 6.2%
- Plant Height ([2]; 0.2% aqueous solution): 4.7 cm
- Dwarfing Rate ([2]; 0.2% aqueous solution): 27.7%
- dwarfing effect ([2]; Cucumis melo var. makuwa young plants, 0.05% and 0.2% aqueous solutions): effective
